Structures can show the parent of a compound that is named as a salt.
Assays:
human FLAP = human FLAP (Homo sapiens (Human), UniProt P20292); assay: FLAP binding assay (HTRF); settings: human FLAP-containing membranes, HTRF format; average of two assay plates, duplicates; read-out: FLAP Binding wild type HTRF Ki
Outline: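 Binding values are averages from two separate assay plates, with each sample run in duplicate per plate. Data are expressed as an HTRF ratio.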

[1] = tested on: leukotriene pathway in human whole blood (LTB4 levels); assay: Human whole blood assay (LTB4); assay type: cell-based; settings: human whole blood diluted 1:1 in RPMI, stimulated with calcium ionophore A23187; single replicate
Outline: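 Compounds are pre-incubated 15 min at 37° Celsius in RPMI-diluted (1:1) heparinised whole blood before a 30 min A23187 stimulus (7 μg/mL). Plasma LTB4 is read by immunoassay kit, with IC50 calculated from a 4-parameter equation.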

human FLAP, sequence (P20292 whole entry): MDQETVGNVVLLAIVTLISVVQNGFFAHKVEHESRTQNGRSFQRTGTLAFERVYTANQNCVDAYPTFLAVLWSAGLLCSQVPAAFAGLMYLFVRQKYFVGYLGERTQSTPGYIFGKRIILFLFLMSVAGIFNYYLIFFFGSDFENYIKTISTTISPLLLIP

Row | Ki (human FLAP) | IC50 [1] | SMILES
1 | 0.0013 µM | 0.112 µM | CC(C)(C)OC(=O)NCCNc1ccnc(Oc2c(C3CCC3)ccc(-c3cnc(N)cn3)c2F)n1 [Example 149, tert-Butyl [2-({2-[3-(5-aminopyrazin-2-yl)-6-cyclobutyl-2-fluorophenoxy]pyrimidin-4-yl}amino)ethyl]carbamate]
2 | 0.176 µM | 3.59 µM | NCCNc1nccc(Oc2c(C3CCC3)ccc(-c3cnc(N)cn3)c2F)n1 [Example 150, N-{4-[3-(5-Aminopyrazin-2-yl)-6-cyclobutyl-2-fluorophenoxy]pyrimidin-2-yl}ethane-1,2-diamine]
3 | 0.0089 µM | 0.0754 µM | COC(=O)c1ccnc(Oc2c(C3CCC3)ccc(-c3cnc(N)cn3)c2F)n1 [Example 151, methyl 2-[3-(5-aminopyrazin-2-yl)-6-cyclobutyl-2-fluorophenoxy]pyrimidine-4-carboxylate]
4 | 0.0625 µM | > 10 µM | Nc1cnc(-c2ccc(C3CCC3)c(Oc3nccc(C(=O)O)n3)c2F)cn1 [Example 152, 2-[3-(5-Aminopyrazin-2-yl)-6-cyclobutyl-2-fluorophenoxy]pyrimidine-4-carboxylic acid]
5 | 0.0023 µM | 0.424 µM | Nc1cnc(-c2ccc(C3CCC3)c(Oc3ccc(C(=O)O)cc3)c2F)cn1 [Example 153, 4-[3-(5-Aminopyrazin-2-yl)-6-cyclobutyl-2-fluorophenoxy]benzoic acid]
6 | 0.0125 µM | > 10 µM | Nc1cnc(-c2ccc(C3CCC3)c(Oc3ccc(C(=O)O)cn3)c2F)cn1 [Example 154, 6-[3-(5-Aminopyrazin-2-yl)-6-cyclobutyl-2-fluorophenoxy]pyridine-3-carboxylic acid]
7 | 0.0206 µM | 0.109 µM | NC(=O)c1ccnc(Oc2c(C3CCC3)ccc(-c3cnc(N)cn3)c2F)n1 [Example 157, 2-[3-(5-Aminopyrazin-2-yl)-6-cyclobutyl-2-fluorophenoxy]pyrimidine-4-carboxamide]
8 | 0.0078 µM | 0.0359 µM | Nc1cnc(Oc2c(C3CCC3)ccc(-c3cnc(N)cn3)c2F)nc1 [Example 158, 2-[3-(5-Aminopyrazin-2-yl)-6-cyclobutyl-2-fluorophenoxy]pyrimidin-5-amine]
9 | 0.0557 µM | 3.31 µM | COc1c(C2CCC2)ccc(-c2cnc(N)nc2)c1F [Example 159, 5-(4-cyclobutyl-2-fluoro-3-methoxyphenyl)pyrimidin-2-amine]
10 | 0.0947 µM | 0.493 µM | Nc1ncc(-c2ccc(C3CCC3)c(Oc3ncccn3)c2F)cn1 [Example 160, 5-[4-Cyclobutyl-2-fluoro-3-(pyrimidin-2-yloxy)phenyl]pyrimidin-2-amine]
11 | 0.0222 µM | 0.088 µM | Nc1ccnc(Oc2c(C3CCC3)ccc(-c3cnc(N)nc3)c2F)n1 [Example 161, 5-{3-[(4-Aminopyrimidin-2-yl)oxy]-4-cyclobutyl-2-fluorophenyl}pyrimidin-2-amine]
12 | 0.0072 µM | 0.124 µM | COCc1cc(Oc2c(C3CCC3)ccc(-c3cnc(N)nc3)c2F)nc(N)n1 [Example 162, 4-[3-(2-Aminopyrimidin-5-yl)-6-cyclobutyl-2-fluorophenoxy]-6-(methoxymethyl)pyrimidin-2-amine]
13 | 0.0704 µM | 0.494 µM | Cc1ccnc(Oc2c(C3CCC3)ccc(-c3cnc(N)nc3)c2F)n1 [Example 163, 5-{4-Cyclobutyl-2-fluoro-3-[(4-methylpyrimidin-2-yl)oxy]phenyl}pyrimidin-2-amine]
14 | 0.0368 µM | 0.119 µM | Nc1cc(Oc2c(C3CCC3)ccc(-c3cnc(N)nc3)c2F)ncn1 [Example 164, 5-{3-[(6-Aminopyrimidin-4-yl)oxy]-4-cyclobutyl-2-fluorophenyl}pyrimidin-2-amine]
15 | 0.0056 µM | 0.304 µM | CC(C)c1ccnc(Oc2c(C3CCC3)ccc(-c3cnc(N)nc3)c2F)n1 [Example 165, 5-(4-Cyclobutyl-2-fluoro-3-{[4-(1-methylethyl)pyrimidin-2-yl]oxy}phenyl)pyrimidin-2-amine]
16 | 0.0117 µM | 0.129 µM | Nc1ncc(-c2ccc(C3CCC3)c(Oc3ccnc(N)n3)c2F)cn1 [Example 166, 4-[3-(2-Aminopyrimidin-5-yl)-6-cyclobutyl-2-fluorophenoxy]pyrimidin-2-amine]
17 | 0.0147 µM | 0.0456 µM | Cc1cc(C)nc(Oc2c(C3CCC3)ccc(-c3cnc(N)nc3)c2F)n1 [Example 167, 5-{4-Cyclobutyl-3-[(4,6-dimethylpyrimidin-2-yl)oxy]-2-fluorophenyl}pyrimidin-2-amine]
18 | 0.0028 µM | 0.0361 µM | CC(C)c1cc(Oc2c(C3CCC3)ccc(-c3cnc(N)nc3)c2F)nc(N)n1 [Example 168, 4-(3-(2-aminopyrimidin-5-yl)-6-cyclobutyl-2-fluorophenoxy)-6-isopropylpyrimidin-2-amine]

Row | Ki (human FLAP) | IC50 [1] | SMILES
19 | 0.205 µM | 0.268 µM | NC(=O)c1ccnc(Oc2c(C3CCC3)ccc(-c3cnc(N)nc3)c2F)n1 [Example 169, 2-[3-(2-Aminopyrimidin-5-yl)-6-cyclobutyl-2-fluorophenoxy]pyrimidine-4-carboxamide]
20 | 0.0903 µM | 1.43 µM | COc1cc(Oc2c(C3CCC3)ccc(-c3cnc(N)nc3)c2F)ncn1 [Example 170, 5-(4-cyclobutyl-2-fluoro-3-((6-methoxypyrimidin-4-yl)oxy)phenyl)pyrimidin-2-amine]
21 | 0.0398 µM | 0.252 µM | Nc1ncc(-c2ccc(C3CCC3)c(Oc3cc(O)ncn3)c2F)cn1 [Example 171, 6-[3-(2-Aminopyrimidin-5-yl)-6-cyclobutyl-2-fluorophenoxy]pyrimidin-4-ol trifluoroacetate]
22 | 0.394 µM | 1.66 µM | COc1c(C2CCC2)ccc(-c2ncc(N)nc2C#N)c1F [Example 172, 6-amino-3-(4-cyclobutyl-2-fluoro-3-methoxyphenyl)pyrazine-2-carbonitrile]
23 | 0.0054 µM | 1.21 µM | N#Cc1nc(N)cnc1-c1ccc(C2CCC2)c(OCc2cccc(C(=O)O)c2)c1F [Example 174, 3-{[3-(5-Amino-3-cyanopyrazin-2-yl)-6-cyclobutyl-2-fluorophenoxy]methyl}benzoic acid]
24 | 0.1 µM | 1.28 µM | COc1c(C2CCC2)ccc(-c2cnc3[nH]ccc3n2)c1F [Example 175, 2-(4-cyclobutyl-2-fluoro-3-methoxyphenyl)-5H-pyrrolo[2,3-b]pyrazine]
25 | 0.041 µM | 10 µM | Nc1ccc(-c2ccc(C3CCC3)c(OCc3ccc(C(=O)O)cc3)c2F)cn1 [Example 181, 4-((3-(6-Aminopyridin-3-yl)-6-cyclobutyl-2-fluorophenoxy)methyl)benzoic acid]
26 | 0.328 µM | > 10 µM | COc1c(C2CCC2)ccc(-c2cnc3[nH]cnc3c2)c1F [Example 183, 6-(4-Cyclobutyl-2-fluoro-3-methoxyphenyl)-3H-imidazo[4,5-b]pyridine]
27 | 0.014 µM | 0.831 µM | COc1c(C2CCC2)ccc(-c2cnc3c(c2)OCCN3)c1F [Example 184, 7-(4-cyclobutyl-2-fluoro-3-methoxyphenyl)-3,4-dihydro-2H-pyrido[3,2-b][1,4]oxazine]
28 | 0.0196 µM | 1.01 µM | Oc1c(C2CCC2)ccc(-c2cnc3c(c2)OCCN3)c1F [Example 185, 6-cyclobutyl-3-(3,4-dihydro-2H-pyrido[3,2-b][1,4]oxazin-7-yl)-2-fluorophenol]
29 | 0.0205 µM | 0.531 µM | Fc1c(-c2cnc3c(c2)OCCN3)ccc(C2CCC2)c1OCc1ccccc1 [Example 186, 7-[3-(Benzyloxy)-4-cyclobutyl-2-fluorophenyl]-3,4-dihydro-2H-pyrido[3,2-b][1,4]oxazine]
30 | 0.012 µM | 0.355 µM | N#Cc1cccc(COc2c(C3CCC3)ccc(-c3cnc4c(c3)OCCN4)c2F)c1 [Example 187, 3-{[6-Cyclobutyl-3-(3,4-dihydro-2H-pyrido[3,2-b][1,4]oxazin-7-yl)-2-fluorophenoxy]-methyl}-benzonitrile]
31 | 0.0086 µM | 1.1 µM | CS(=O)(=O)c1cccc(COc2c(C3CCC3)ccc(-c3cnc4c(c3)OCCN4)c2F)c1 [Example 188, 7-(4-Cyclobutyl-2-fluoro-3-{[3-(methylsulfonyl)-benzyl]oxy}phenyl)-3,4-dihydro-2H-pyrido[3,2-b][1,4]oxazine]
32 | 0.0098 µM | 1.14 µM | CS(=O)(=O)c1ccc(COc2c(C3CCC3)ccc(-c3cnc4c(c3)OCCN4)c2F)cc1 [Example 189, 7-(4-Cyclobutyl-2-fluoro-3-{[4-(methylsulfonyl)-benzyl]-oxy}-phenyl)-3,4-dihydro-2H-pyrido[3,2-b][1,4]oxazine]
33 | 0.0472 µM | 1.06 µM | N#Cc1ccc(COc2c(C3CCC3)ccc(-c3cnc4c(c3)OCCN4)c2F)cc1 [Example 190, 4-{[6-Cyclobutyl-3-(3,4-dihydro-2H-pyrido[3,2-b][1,4]oxazin-7-yl)-2-fluorophenoxy]-methyl}-benzonitrile]
34 | 0.25 µM | 3.43 µM | Fc1c(-c2cnc3c(c2)OCCN3)ccc(C2CCC2)c1OCc1ccc(C(F)(F)F)cc1 [Example 191, 7-(4-Cyclobutyl-2-fluoro-3-{[4-(trifluoromethyl)benzyl]oxy}phenyl)-3,4-dihydro-2H-pyrido[3,2-b][1,4]oxazine]
35 | 0.0053 µM | 0.418 µM | NC(=O)c1cccc(COc2c(C3CCC3)ccc(-c3cnc4c(c3)OCCN4)c2F)c1 [Example 192, 3-{[6-Cyclobutyl-3-(3,4-dihydro-2H-pyrido[3,2-b][1,4]oxazin-7-yl)-2-fluorophenoxy]-methyl}-benzamide]
36 | 0.0037 µM | 0.769 µM | NC(=O)c1ccc(COc2c(C3CCC3)ccc(-c3cnc4c(c3)OCCN4)c2F)cc1 [Example 193, 4-{[6-Cyclobutyl-3-(3,4-dihydro-2H-pyrido[3,2-b][1,4]oxazin-7-yl)-2-fluorophenoxy]-methyl}-benzamide]

Reference: US9073876B2, “Flap modulators” (JANSSEN PHARMACEUTICA NV, priority 2013, dated 2015)
